inhibition, chromatographic logP and pest or weed control data for 13 compounds are collected here from US20250042886A1, “BIS(HETERO)ARYL THIOETHER OXADIAZINES AS FUNGICIDAL COMPOUNDS” (Bayer Aktiengesellschaft, priority 2021, published 2025).

In one data set the test system is Fusarium culmorum. In words: Fusarium culmorum in vitro cell test. The class given is cell-based. Conditions: 120 h, 50 μMol/l of active ingredient, liquid culture, 5 days incubation, read-out: efficacy (inhibition of fungal growth). On the procedure:
B-10. Fusarium culmorum In Vitro Cell Test • Solvent: DMSO • Culture medium: 1 g KH2PO4 (VWR), 1 g K2HPO4 (VWR), 0.5 g Urea (VWR), 3 g KNO3 (Prolabo), 10 g saccharose (VWR), 0.5 g MgSO4, 7H2O (Sigma), 0.07 g CaCl2, 2H2O (Prolabo), 0.2 mg MnSO4, H2O (Sigma), 0.6 mg CuSO4, 5H2O (Sigma), 7.9 mg ZnSO4, 7H2O (Sigma), 0.1 mg H3BO3 (Merck), 0.14 mg NaMoO4, 2H2O (Sigma), 2 mg thiamine (Sigma), 0.1 mg biotine (VWR), 4 mg FeSO4, 7H2O (Sigma), QSP 1 liter • Inoculum: spores suspension
Fungicides were solubilized in DMSO and the solution used to prepare the required range of concentrations. The final concentration of DMSO used in the assay was ≤1%.
A spore suspension of F. culmorum was prepared and diluted to the desired spore density.
Fungicides were evaluated for their ability to inhibit spore germination and mycelium growth in liquid culture assay. The compounds were added in the desired concentration to the culture medium with spores. After 5 days incubation, fungi-toxicity of compounds was determined by spectrometric measurement of mycelium growth. Inhibition of fungal growth was determined by comparing the absorbance values in wells containing the fungicides with the absorbance in control wells without fungicides.

Data set [1] in a line: Measurement of Log P values by HPLC on reversed phase columns (EEC directive 79/831 Annex V.A8). Conditions: Table 1, compounds of formula (I); method [a]: LC-UV, acidic range, 0.1% formic acid in water and acetonitrile. The class given is physicochemical.
For another data set, the system named is Alternaria alternata. In words: Alternaria alternata in vitro cell test. The class given is cell-based. The conditions noted are these: 120 h, 50 μMol/l of active ingredient, liquid culture, 5 days incubation, read-out: efficacy (inhibition of fungal growth). On the procedure: (§1) B-5. Alternaria alternata In Vitro Cell Test • Solvent: DMSO • Culture medium: 14.6 g anhydrous D-glucose (VWR), 7.1 g Mycological Peptone (Oxoid), 1.4 g granulated Yeast Extract (Merck), QSP 1 liter • Inoculum: spores suspension Fungicides were solubilized in DMSO and the solution used to prepare the required range of concentrations. […] A spore suspension of A. alternata was prepared and diluted to the desired spore density. Fungicides were evaluated for their ability to inhibit spore germination and mycelium growth in liquid culture assay. The compounds were added in the desired concentration to the culture medium with spores. After 5 days incubation, fungi-toxicity of compounds was determined by spectrometric measurement of mycelium growth. Inhibition of fungal growth was determined by comparing the absorbance values in wells containing the fungicides with the absorbance in control wells without fungicides.

In another data set the test system is Pyricularia oryzae. Nature of the data set: microbe, parasite or virus in culture. The class given is cell-based. The conditions noted are these: 120 h, read-out: efficacy (inhibition of fungal growth), 50 μMol/l of active ingredient, liquid culture, 5 days incubation.
Data set [2] concerns Botrytis cinerea. Nature of the data set: In vivo preventive test on Botrytis cinerea (grey mould). The conditions noted are these: 500 ppm of active ingredient, sprayed on young gherkin or cabbage plants 24 h before inoculation, evaluated 4 to 5 days after inoculation, read-out: efficacy. On the procedure: The active ingredients were made soluble and homogenized in a mixture of Dimethyl sulfoxide/Acetone//Tween® 80 and then diluted in water to the desired concentration. The young plants of gherkin or cabbage were treated by spraying the active ingredient prepared as described above. Control plants were treated only with an aqueous solution of Acetone/Dimethyl sulfoxide/Tween® 80. After 24 hours, the plants were contaminated by spraying the leaves with an aqueous suspension of Botrytis cinerea spores.

Another data set relates to Alternaria brassicae. Nature of the data set: In vivo preventive test on Alternaria brassicae (leaf spot on radish or cabbage). Conditions: 500 ppm of active ingredient, sprayed on young radish or cabbage plants 24 h before inoculation, evaluated 3 to 4 days after inoculation, read-out: efficacy. Here is the method:
B-1. […] The active ingredients were made soluble and homogenized in a mixture of Dimethyl sulfoxide/Acetone//Tween® 80 and then diluted in water to the desired concentration. The young plants of radish or cabbage were treated by spraying the active ingredient prepared as described above. Control plants were treated only with an aqueous solution of Acetone/Dimethyl sulfoxide/Tween® 80. After 24 hours, the plants were contaminated by spraying the leaves with an aqueous suspension of Alternaria brassicae spores.

The test system of data set [3] is Colletotrichum lindemuthianum. Nature of the data set: Colletotrichum lindemuthianum in vitro cell test. The format is cell-based. The conditions noted are these: 144 h, 50 μMol/l of active ingredient, liquid culture, 6 days incubation, read-out: efficacy (inhibition of fungal growth). Here is the method: as §1, with “B-7. Colletotrichum lindemuthianum In” for “B-5. Alternaria alternata In”, “of C. lindemuthianum” for “of A. alternata”, “inhibit spores” for “inhibit spore”, “After 6” for “After 5”

Data set [4] deals with Botrytis cinerea. Nature of the data set: Botrytis cinerea in vitro cell test. The class given is cell-based. Conditions: 144 h, 50 μMol/l of active ingredient, liquid culture, 6 days incubation, read-out: efficacy (inhibition of fungal growth). A digest of the protocol:
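Liquid-culture germination/growth test: spore suspension in synthetic medium (salts, urea, KNO3, saccharose, trace elements, thiamine, biotin) with compound dissolved in DMSO. Absorbance of mycelial growth measured at day 6, compared with untreated wells to give inhibition.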

The test system of a further data set is Pyrenophora teres. Nature of the data set: Pyrenophora teres in vitro cell test. The format is cell-based. The conditions noted are these: 144 h, 50 μMol/l of active ingredient, liquid culture, 6 days incubation, read-out: efficacy (inhibition of fungal growth). Here is the method: as §1, with “B-8. Pyrenophora teres In” for “B-5. Alternaria alternata In”, “Inoculum: spore” for “Inoculum: spores”, “of P. teres” for “of A. alternata”, “After 6” for “After 5”

For `Cc1cc([C@H]2CON=C(c3c(Sc4cccc(F)c4)nnc(C)c3C)N2)c(C)s1` (racemic) [Compound I-050], the inhibition at 50 µM (with Fusarium culmorum; with Alternaria alternata; in the data set on Pyricularia oryzae; in [3]; in the data set with Botrytis cinerea [4]; in the data set on Pyrenophora teres) was 90 to 100% in each case. The compound also came in with a chromatographic logP in data set [1] of 3.16. Besides, the pest or weed control at 500 ppm in the data set on Botrytis cinerea [2] and in the data set with Alternaria brassicae was 90 to 100% throughout.

The compound `Cc1cc([C@H]2CON=C(c3c(Sc4ccccc4Cl)nnc(C)c3C)N2)c(C)s1` (racemic) [Compound I-059] yielded a chromatographic logP in [1] of 3.31. Besides, the results for the inhibition at 50 µM in the data set on Alternaria alternata, in the data set on Botrytis cinerea [4] and with Pyrenophora teres were 80 to 89%, 90 to 100% and 90 to 100%, respectively. Further, the pest or weed control at 500 ppm in the data set on Botrytis cinerea [2] and in the data set with Alternaria brassicae was 90 to 100% each time.

In data set [1], `Cc1ccc([C@H]2CON=C(c3c(Sc4ccccc4Cl)nnc4ccccc34)N2)s1` (racemic) [Compound I-067] showed a chromatographic logP of 3.4. Besides, the inhibition at 50 µM with Alternaria alternata was in the range of 90 to 100%; in the data set on Pyricularia oryzae, 70 to 79%; in data set [3] it was 80 to 89%; with Botrytis cinerea [4], 90 to 100%; in the data set with Pyrenophora teres it was 90 to 100%. Besides, the pest or weed control at 500 ppm in the data set with Botrytis cinerea [2] and with Alternaria brassicae was 90 to 100% in each case.

Consider `Cc1cc([C@@H]2CON=C(c3c(Sc4cccc(Cl)c4F)nnc(C)c3C)N2)c(C)s1` (racemic) [Compound I-071], for which the inhibition at 50 µM (with Fusarium culmorum; in the data set on Alternaria alternata; in the data set on Pyricularia oryzae; in data set [3]; with Botrytis cinerea [4]; in the data set on Pyrenophora teres) was 90 to 100% each time. The compound further showed a chromatographic logP in data set [1] of 3.58.

As for `Cc1cc([C@H]2CON=C(c3c(Sc4ccc(F)c(F)c4)nnc(C)c3C)N2)c(C)s1` (racemic) [Compound I-091], the inhibition at 50 µM fell in the range of 90 to 100% with Fusarium culmorum; 80 to 89% with Alternaria alternata; 80 to 89% in the data set on Pyricularia oryzae; 90 to 100% in [3]; 90 to 100% in the data set with Botrytis cinerea [4]; 90 to 100% with Pyrenophora teres. The chromatographic logP in data set [1] turned out to be 3.33. The figures for the pest or weed control at 500 ppm in the data set with Botrytis cinerea [2] and in the data set with Alternaria brassicae were 90 to 100% and 80 to 89%, respectively.

On to `Cc1ccc(C2CON=C(c3c(Sc4cccc(Cl)c4F)nnc(C)c3C)N2)s1` (racemic) [Compound I-103], for which the inhibition at 50 µM lay in the range of 80 to 89% in the data set with Fusarium culmorum; 90 to 100% in the data set with Alternaria alternata; 90 to 100% with Pyricularia oryzae; 90 to 100% in [3]; 90 to 100% with Botrytis cinerea [4]; 90 to 100% in the data set with Pyrenophora teres. Also, the chromatographic logP in data set [1] came to 3.21.

Regarding `Cc1ccc(C2CON=C(c3c(Sc4cccc(Cl)c4)nnc(C)c3C)N2)s1` (racemic) [Compound I-104], the inhibition at 50 µM (in the data set on Fusarium culmorum; with Alternaria alternata; with Pyricularia oryzae; in data set [3]; in the data set on Botrytis cinerea [4]; in the data set on Pyrenophora teres) was 90 to 100% throughout. The same compound returned a chromatographic logP in data set [1] of 3.14.

For `Cc1cc([C@H]2CON=C(c3c(Sc4ccc(C)c(C)c4)nnc(C)c3C)N2)c(C)s1` (racemic) [Compound I-111], the inhibition at 50 µM fell in the range of 90 to 100% in the data set with Fusarium culmorum; 70 to 79% with Alternaria alternata; 90 to 100% in [3]; 90 to 100% in the data set with Botrytis cinerea [4]; 90 to 100% with Pyrenophora teres. Further, in data set [1], the chromatographic logP turned out to be 3.64. Besides, in the data set with Botrytis cinerea [2], the pest or weed control at 500 ppm lay within 80 to 89%.

`Cc1cc([C@@H]2CON=C(c3c(Sc4cccc(Cl)c4Cl)nnc(C)c3C)N2)c(C)s1` (racemic) [Compound I-118] displayed a chromatographic logP in [1] of 3.7. Moreover, the inhibition at 50 µM in the data set on Alternaria alternata was in the range of 90 to 100%; in the data set with Pyricularia oryzae, 80 to 89%; in data set [3], 80 to 89%; in the data set with Botrytis cinerea [4] it was 90 to 100%; in the data set with Pyrenophora teres, 90 to 100%.

For `Cc1cc([C@@H]2CON=C(c3c(Sc4ccc5ccccc5c4)nnc(C)c3C)N2)c(C)s1` (racemic) [Compound I-122], the inhibition at 50 µM with Fusarium culmorum was in the range of 90 to 100%; in the data set on Alternaria alternata it was 70 to 79%; in data set [3], 70 to 79%; with Pyrenophora teres, 80 to 89%. This compound also showed a chromatographic logP in data set [1] of 3.68.

In the case of `Cc1ccc([C@H]2CON=C(c3c(Sc4cccc(F)c4)nnc(C)c3C)N2)s1` (racemic) [Compound I-125], the inhibition at 50 µM in the data set on Fusarium culmorum was 90 to 100%; in the data set with Alternaria alternata, 70 to 79%; in the data set on Pyricularia oryzae it was 80 to 89%; in data set [3] it was 90 to 100%; in the data set on Botrytis cinerea [4], 90 to 100%; in the data set on Pyrenophora teres it was 80 to 89%. Also, in data set [1], the chromatographic logP is 2.83.

Compound `Cc1ccc([C@H]2CON=C(c3c(Sc4cccc(Cl)c4Cl)nnc4ccccc34)N2)s1` (racemic) [Compound I-131] registered a chromatographic logP in data set [1] of 3.8. Also, the inhibition at 50 µM was in the range of 90 to 100% in the data set on Alternaria alternata; 80 to 89% in the data set with Pyricularia oryzae; 90 to 100% in [3]; 90 to 100% with Botrytis cinerea [4]; 90 to 100% with Pyrenophora teres. Also, the pest or weed control at 500 ppm in the data set on Botrytis cinerea [2] and in the data set on Alternaria brassicae was 90 to 100% each time.

The compound `Cc1ccc([C@@H]2CON=C(c3c(Sc4cccc(Cl)c4Cl)nnc(C)c3C)N2)s1` (racemic) [Compound I-136] had a chromatographic logP in data set [1] of 3.31. The inhibition at 50 µM in the data set with Alternaria alternata fell in the range of 80 to 89%; with Pyricularia oryzae, 70 to 79%; in the data set on Botrytis cinerea [4], 90 to 100%; in the data set with Pyrenophora teres it was 90 to 100%.

As a reminder, the chromatographic logP is a lipophilicity value derived from retention on a column. Higher therefore signals a more lipophilic compound.
